Tests used:
[1] = system: Gli1 protein in Sufu−/− MEF; assay: Gli1 immunostaining of Sufu−/− MEF; type: cell-based, mouse; conditions: 20 µM, 48 hours
[2] = system: PANC-1, SUIT-2, PC-3 and FEMX cells; assay: In vitro antiproliferative assay (MTS), tumor cell lines; type: cell-based, human; conditions: 10 µM, 4 day exposure; across PANC-1, SUIT-2, PC-3 and FEMX
Procedure: Cells were plated at a density of 3000 (THLE-2 and PC-3) and 1000 (PANC-1, SUIT-2 and FEMX) cells per well (on the basis of their growth rate) in 200 µl of medium in a 96-well plate. Medium was changed daily, and after four days, the assay was read using a MTS kit (Promega) according to the instructions of the manufacturer. Graphs display average of percent growth with standard deviation (n = 8).

[3] = system: GLI1 mRNA in SUIT-2 cells; assay: Real time PCR of GLI1 mRNA in SUIT-2; type: cell-based, human; conditions: 48 hrs
Procedure: Cells were lysed for RNA extraction after 48 or 72 hours of treatment. Total RNA from cultured cells or tumor tissue was isolated using the GeneElute miniprep kit (Sigma-Aldritch) following the manufacturer^'s instructions. cDNA was synthesized from the isolated mRNA using the Retroscript kit (Ambion), and real-time PCR was carried out using the SYBR Green PCR master mix (Stratagene) according to the manufacturer^'s instructions with an Mx3000P cycler (Stratagene). The relative concentrations of cDNA present in each sample were calculated by the MxPro software (Stratagene), normalized for GAPDH (mRNA from cells) or GUS (mRNA from tumors). For real time PCR primer sequences see Table 6. For the tumor tissue real time PCR, previously described human and mouse specific primers against GUSB, PTCH1 and GLI1were used.

Cc1cccn2cc(-c3ccc(NC(=O)c4ccccc4Br)cc3)nc12 [MS-0022, 2-bromo-N-(4-(8-methylimidazo[1,2-a]pyridin-2-yl)phenyl)benzamide]
ratio of nuclear versus cytoplasmic Gli1 [1]: did not alter the ratio | total level of Gli1 in the cells [1]: the total level of Gli1 in the cells was reduced | growth reduction (MTS) [2]: 40%–70% | GLI1 mRNA levels, SUIT-2 [3]: reduced GLI1 mRNA levels

— paper PMC3115942 (PLoS ONE, 2011)
